From paper PMC6746701, “A phyB-PIF1-SPA1 kinase regulatory complex promotes photomorphogenesis in Arabidopsis” (Nature Communications, 2019)

Legend:
phyB = biological target: T1, phyB (Arabidopsis thaliana, UniProt P14713); experiment: in vitro kinase assay, autoradiogram; assay type: biochemical; conditions: PIF1 as co-substrate, 10 mM MgCl2, pH 7.5, 28 °C; labelled compound (gamma-32P)
T1 construct: full length (1172 aa), strep-tagged from Pichia pastoris GS115 or GFP fusion from Saccharomyces cerevisiae; holoprotein with phycocyanobilin; dimer
T1 sequence (P14713 1-1172): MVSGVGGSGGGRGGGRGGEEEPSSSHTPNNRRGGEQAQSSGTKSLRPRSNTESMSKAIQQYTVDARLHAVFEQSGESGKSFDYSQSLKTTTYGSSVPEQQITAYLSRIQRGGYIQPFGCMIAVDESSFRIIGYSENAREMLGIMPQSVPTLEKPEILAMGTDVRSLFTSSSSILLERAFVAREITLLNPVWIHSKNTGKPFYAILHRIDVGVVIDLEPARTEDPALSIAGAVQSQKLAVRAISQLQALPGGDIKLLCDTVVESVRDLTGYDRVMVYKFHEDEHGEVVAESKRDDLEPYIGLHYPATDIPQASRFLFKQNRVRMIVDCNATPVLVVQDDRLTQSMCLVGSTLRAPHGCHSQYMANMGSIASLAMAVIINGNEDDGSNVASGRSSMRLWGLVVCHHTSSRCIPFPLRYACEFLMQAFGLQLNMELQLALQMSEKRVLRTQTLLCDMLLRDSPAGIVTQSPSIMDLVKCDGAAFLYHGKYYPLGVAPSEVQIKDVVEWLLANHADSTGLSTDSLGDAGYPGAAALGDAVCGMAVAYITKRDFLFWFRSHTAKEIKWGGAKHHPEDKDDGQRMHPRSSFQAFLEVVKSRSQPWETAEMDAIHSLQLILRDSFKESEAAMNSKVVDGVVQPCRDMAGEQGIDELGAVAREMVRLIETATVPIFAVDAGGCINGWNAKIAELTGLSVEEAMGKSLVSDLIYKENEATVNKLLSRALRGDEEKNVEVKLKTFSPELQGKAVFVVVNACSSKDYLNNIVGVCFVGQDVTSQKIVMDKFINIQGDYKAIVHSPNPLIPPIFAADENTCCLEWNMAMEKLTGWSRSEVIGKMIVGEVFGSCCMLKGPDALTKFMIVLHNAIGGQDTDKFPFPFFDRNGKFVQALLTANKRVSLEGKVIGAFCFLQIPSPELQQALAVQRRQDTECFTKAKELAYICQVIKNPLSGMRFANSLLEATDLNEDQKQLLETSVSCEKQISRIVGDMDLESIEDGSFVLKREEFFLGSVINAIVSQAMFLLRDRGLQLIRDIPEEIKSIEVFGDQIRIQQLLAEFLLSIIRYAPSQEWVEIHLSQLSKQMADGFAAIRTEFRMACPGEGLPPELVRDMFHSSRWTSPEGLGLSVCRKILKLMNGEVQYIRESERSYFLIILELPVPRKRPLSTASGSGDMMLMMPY

phyA = biological target: T2, phyA (Arabidopsis thaliana, UniProt P14712); experiment: in vitro kinase assay, autoradiogram; assay type: biochemical; conditions: PIF1 as co-substrate, 10 mM MgCl2, pH 7.5, 28 °C; labelled compound (gamma-32P)
T2 construct: holoprotein purified from Saccharomyces cerevisiae
T2 sequence (P14712 1-1122): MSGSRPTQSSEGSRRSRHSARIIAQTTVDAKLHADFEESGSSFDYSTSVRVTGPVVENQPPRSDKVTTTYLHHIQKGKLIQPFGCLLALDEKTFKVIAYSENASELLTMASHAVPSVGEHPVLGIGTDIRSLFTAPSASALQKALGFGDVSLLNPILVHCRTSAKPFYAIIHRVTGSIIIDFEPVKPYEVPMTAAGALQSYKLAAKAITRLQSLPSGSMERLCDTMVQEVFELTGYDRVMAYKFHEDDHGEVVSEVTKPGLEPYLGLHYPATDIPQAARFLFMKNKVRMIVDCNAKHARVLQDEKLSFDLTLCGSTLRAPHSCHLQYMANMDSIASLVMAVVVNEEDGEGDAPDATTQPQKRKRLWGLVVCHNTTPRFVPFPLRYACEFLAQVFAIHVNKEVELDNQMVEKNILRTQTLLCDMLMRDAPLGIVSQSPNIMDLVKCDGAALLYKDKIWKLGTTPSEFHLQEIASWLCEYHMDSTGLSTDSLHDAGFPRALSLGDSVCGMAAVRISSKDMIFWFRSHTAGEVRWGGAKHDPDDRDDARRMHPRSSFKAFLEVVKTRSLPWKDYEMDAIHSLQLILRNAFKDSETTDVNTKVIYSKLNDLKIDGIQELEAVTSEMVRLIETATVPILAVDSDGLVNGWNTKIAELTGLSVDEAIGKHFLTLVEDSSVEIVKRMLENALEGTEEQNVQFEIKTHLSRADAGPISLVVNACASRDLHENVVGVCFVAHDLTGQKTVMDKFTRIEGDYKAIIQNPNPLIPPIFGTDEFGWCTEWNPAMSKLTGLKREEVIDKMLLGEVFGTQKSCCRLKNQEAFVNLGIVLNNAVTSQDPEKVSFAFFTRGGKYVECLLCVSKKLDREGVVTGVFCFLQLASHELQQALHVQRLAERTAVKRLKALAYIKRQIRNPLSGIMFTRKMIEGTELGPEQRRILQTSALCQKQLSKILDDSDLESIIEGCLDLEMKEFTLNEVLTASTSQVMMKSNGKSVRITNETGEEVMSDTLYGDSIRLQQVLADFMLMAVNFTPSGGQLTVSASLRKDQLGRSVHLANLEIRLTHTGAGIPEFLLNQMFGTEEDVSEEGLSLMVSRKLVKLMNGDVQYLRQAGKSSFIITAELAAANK

[1] = biological target: T3, Arabidopsis phytochrome B holoprotein purified from Pichia pastoris (Arabidopsis, UniProt P14713 1-1172, phycocyanobilin chromophore assembled); experiment: pull-down; tripartite complex: 2 µg GST-PIF1-strep on GST agarose beads, 1-2 µg purified phyB from Pichia pastoris, with E. coli lysate holding MBP-SPA1; anti-strep blot; conditions: both partners purified
T3 construct: phytochrome B (phyB), Arabidopsis; also called phyB; Pfr form of phyB; source: Pichia pastoris GS115, purified (ammonium sulfate, Strep-Tactin Sepharose)
T3 sequence (looked up): T1 sequence (P14713 1-1172)

Q: `Nc1ncnc2c1ncn2[C@@H]1O[C@H](COP(=O)(O)OP(=O)(O)OP(=O)(O)O)[C@@H](O)[C@H]1O` [ATP] was tested. Which “in vitro kinase assay, autoradiogram” value (phyB) did it give?
A: The value was “both SPA1 and phyB independently phosphorylates PIF1 in vitro”.

Q: What about the “in vitro kinase assay, autoradiogram” value (phyA) of the same molecule?
A: The value was “In this assay, both phyA and phyB phosphorylated PIF1 in vitro”.

B1: GST-PIF1-strep (natural protein, Arabidopsis, UniProt Q8GZM7 1-478, looked up)
chain: MHHFVPDFDTDDDYVNNHNSSLNHLPRKSITTMGEDDDLMELLWQNGQVVVQNQRLHTKKPSSSPPKLLPSMDPQQQPSSDQNLFIQEDEMTSWLHYPLRDDDFCSDLLFSAAPTATATATVSQVTAARPPVSSTNESRPPVRNFMNFSRLRGDFNNGRGGESGPLLSKAVVRESTQVSPSATPSAAASESGLTRRTDGTDSSAVAGGGAYNRKGKAVAMTAPAIEITGTSSSVVSKSEIEPEKTNVDDRKRKEREATTTDETESRSEETKQARVSTTSTKRSRAAEVHNLSERKRRDRINERMKALQELIPRCNKSDKASMLDEAIEYMKSLQLQIQMMSMGCGMMPMMYPGMQQYMPHMAMGMGMNQPIPPPSFMPFPNMLAAQRPLPTQTHMAGSGPQYPVHASDPSRVFVPNQQYDPTSGQPQYPAGYTDPYQQFRGLHPTQPPQFQNQATSYPSSSRVSSSKESEDHGNHTTG
notes: source: E. coli BL21(DE3), purified (Strep-Tactin Sepharose); not shown: GST, N-terminal, kept; Strep tag, C-terminal, kept
Q: Does B1 bind [1]?
A: Result: binds
